Measurements reported in patent US20260144820A1, “ACTIVATION OF RESIDENT MEMORY T CELLS FOR CANCER IMMUNOTHERAPY” (priority 2015, published 2026).

Legend:
VSV-Ova specific TRM = test system: VSV-Ova specific TRM; set-up: species or system mice; conditions: mouse, in vivo
[1] = test system: virus-specific TRM within skin tumors; set-up: species or system mice; conditions: mouse, in vivo

With SIINFEKL the “reactivation of virus-specific TRM within skin tumors” value (VSV-Ova specific TRM) was “can become reactivated” and the “recruitment of CD8 T cells and NK cells to tumors” value [1] was “recruit CD8 T cells and NK cells to the tumors”.
